Results on 1 compound are retold here after patent US7416848B2, “DNA encoding SNORF25 receptor” (H. Lundbeck A/S, priority 1999, dated 2008).

Holding throughout (assay type): cell-based
One assay deals with T1, SNORF25 (Homo sapiens, UniProt Q8TDV5).
T1 sequence (Q8TDV5 1-335): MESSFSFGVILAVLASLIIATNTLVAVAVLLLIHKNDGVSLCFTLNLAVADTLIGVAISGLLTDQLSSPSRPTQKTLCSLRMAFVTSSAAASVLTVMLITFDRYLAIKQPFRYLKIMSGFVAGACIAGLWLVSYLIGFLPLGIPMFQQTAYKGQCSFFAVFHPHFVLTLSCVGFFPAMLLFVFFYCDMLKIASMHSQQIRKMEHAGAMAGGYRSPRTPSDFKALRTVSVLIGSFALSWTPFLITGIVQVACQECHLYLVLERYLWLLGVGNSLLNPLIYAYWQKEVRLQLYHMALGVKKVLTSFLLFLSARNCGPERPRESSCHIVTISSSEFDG
In words: Stimulation of cAMP release by CHO cells stably expressing hSNORF25 receptors. The arrangement: expressed in transfected cells. The protocol: CHO cells are grown on 150 mm plates in HAM's F-12 medium with supplements (10% bovine calf serum, 4 mM L-glutamine and 100 units/ml penicillin/100 μg/ml streptomycin) at 37° C., 5% CO2. Stock plates of CHO cells are trypsinized and split 1:8 every 3–4 days.
Heterologous DNA can be stably incorporated into host cells, causing the cell to perpetually express a foreign protein. Methods for the delivery of the DNA into the cell are similar to those described above for transient expression but require the co-transfection of an ancillary gene to confer drug resistance on the targeted host cell. The ensuing drug resistance can be exploited to select and maintain cells that have taken up the DNA. An assortment of resistance genes are available including but not restricted to neomycin, kanamycin, and hygromycin. For the purposes of studies concerning the receptor of this invention, stable expression of a heterologous receptor protein is typically carried out in, mammalian cells including but not necessarily restricted to, CHO, HEK293, LM(tk−), etc.
(§1) The receptor-mediated stimulation or inhibition of cyclic AMP (cAMP) formation may be assayed in cells expressing the receptors. According to one method, cells are plated in 96-well plates or other vessels and preincubated in a buffer such as HEPES buffered saline (NaCl (150 mM), CaCl2 (1mM), KCl (5 mM), glucose (10 mM)) supplemented with a phosphodiesterase inhibitor such as 5 mM theophylline, with or without protease inhibitor cocktail (For example, a typical inhibitor cocktail contains 2 μg/ml aprotinin, 0.5 mg/ml leupeptin, and 10 μg/ml phosphoramidon.) for 20 min at 37° C., in 5% CO2. Test compounds are added with or without […] and incubated for an additional 10 min at 37° C. The medium is then aspirated and the reaction stopped by the addition of 100 mM HCl or other methods. The plates are stored at 4° C. for 15 min, and the cAMP content in the stopping solution is measured by radioimmunoassay. Radioactivity may be quantified using a gamma counter equipped with data reduction software. Specific modifications may be performed to optimize the assay for the receptor or to alter the detection method of cAMP.
as §1, with “According” for “The receptor-mediated stimulation or inhibition of cyclic AMP (cAMP) formation may be assayed in cells expressing the receptors. According”, “a second” for “one”, “washed 2 times with” for “plated in 96-well plates or other vessels and preincubated in a buffer such as”, “saline, as described above, and incubated overnight. On the day of the experiment, cells are washed 2 times with HEPES” for “saline (NaCl (150 mM), CaCl2 (1mM), KCl (5 mM), glucose (10 mM))”
Several other closely related analogues of PAF namely Lyso-PAF with different carbon chains also stimulated cAMP.

In another assay the target is T2, serotonin 5-HT4 receptor (Homo sapiens, UniProt Q13639).
T2 construct: expressed in transfected cells; host or cells: Cos-7 cells
T2 sequence (Q13639 whole entry): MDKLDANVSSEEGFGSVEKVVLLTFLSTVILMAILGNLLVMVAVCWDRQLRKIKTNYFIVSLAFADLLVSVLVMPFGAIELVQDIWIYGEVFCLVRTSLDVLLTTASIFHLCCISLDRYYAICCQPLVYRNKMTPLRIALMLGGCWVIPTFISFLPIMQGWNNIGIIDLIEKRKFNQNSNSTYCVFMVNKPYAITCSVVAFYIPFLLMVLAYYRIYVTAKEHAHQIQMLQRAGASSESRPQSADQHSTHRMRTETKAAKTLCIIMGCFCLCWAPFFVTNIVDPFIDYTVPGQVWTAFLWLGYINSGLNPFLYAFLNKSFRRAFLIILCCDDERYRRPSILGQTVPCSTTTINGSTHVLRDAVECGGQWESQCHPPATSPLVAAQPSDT
As to the kind of experiment: cAMP in Cos-7 cells transfected with serotonin 5-HT4 receptor. As to conditions: 10 μM, serotonin 5-HT4 (FIG. 7). The method, then: (§2) A typical protocol for the electroporation method as applied to Cos-7 cells is described as follows. Cells to be used for transfection are split 24 hours prior to the transfection to provide flasks which are subconfluent at the time of transfection. The cells are harvested by trypsinization resuspended in their growth media and counted. 5×10^6 cells are suspended in 300 μl of DMEM and placed into an electroporation cuvette. 8 μg of receptor DNA plus 8 μg of any additional DNA needed (e.g. G protein expression vector, reporter construct, antibiotic resistance marker, mock vector, etc.) is added to the cell suspension, the cuvette is placed into a BioRad Gene Pulser and subjected to an electrical pulse (Gene Pulser settings: 0.25 kV voltage, 950 μF capacitance). Following the pulse, 800 μl of complete DMEM is added to each cuvette and the suspension transferred to a sterile tube. Complete medium is added to each tube to bring the final cell concentration to 1×10^5 cells/100 μl. […]
(§3) The receptor-mediated stimulation or inhibition of cyclic AMP (cAMP) formation may be assayed in cells expressing the receptors. […] The plates are stored at 4° C. for 15 min, and the cAMP content in the stopping solution is measured by radioimmunoassay. Radioactivity may be quantified using a gamma counter equipped with data reduction software. […]

In a further assay the target is T3, dopamine D5 receptor (Homo sapiens, UniProt P21918).
T3 construct: expressed in transfected cells; host or cells: Cos-7 cells
T3 sequence (P21918 whole entry): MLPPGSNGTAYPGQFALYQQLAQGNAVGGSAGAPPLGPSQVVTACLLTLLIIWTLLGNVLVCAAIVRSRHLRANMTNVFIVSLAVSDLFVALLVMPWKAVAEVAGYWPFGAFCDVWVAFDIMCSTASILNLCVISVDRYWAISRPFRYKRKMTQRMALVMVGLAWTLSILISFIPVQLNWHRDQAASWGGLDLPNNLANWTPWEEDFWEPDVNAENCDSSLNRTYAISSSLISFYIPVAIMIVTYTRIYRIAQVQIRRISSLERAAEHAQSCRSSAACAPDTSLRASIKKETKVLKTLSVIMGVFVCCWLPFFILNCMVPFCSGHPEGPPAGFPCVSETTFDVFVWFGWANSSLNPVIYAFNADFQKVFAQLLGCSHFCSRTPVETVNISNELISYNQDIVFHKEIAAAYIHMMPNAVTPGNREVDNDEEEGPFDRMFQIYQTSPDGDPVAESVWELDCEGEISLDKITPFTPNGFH
As to the kind of experiment: cAMP in Cos-7 cells transfected with dopamine D5 receptor. Particulars: 10 μM, dopamine D5 (FIG. 7). The method, then: as §2, §3

The term EC50 denotes the concentration at which the effect is half-maximal. A high value points to a need for much substance.

Take `CC1=C(/C=C/C(C)=C/C=C/C(C)=C/C(=O)O)C(C)(C)CCC1` [ATRA, all-trans-retinoic acid]: the “potency lower than PAF(C18)” value on SNORF25 (cAMP release, SNORF25 stable CHO cells (FIG. 11B)) is on record as around 3 fold. Moreover, the “% of PAF(C18) Response” value at SNORF25 (maximum response as % of maximum response produced by PAF(C18) (taken as 100%)) came to 105%. The response at SNORF25 (mean ± S.E.M., at least 3 experiments, CHO cells stably expressing hSNORF25) was half-maximal at 1440 ± 652 nM (EC50). Moreover, the cAMP response entry on serotonin 5-HT4 receptor and on dopamine D5 receptor was “no response” each time.
